According to patent US12006289B2, “Potassium channel inhibitors” (Saniona A/S, priority 2019, dated 2024):

Target: erythrocyte KCa3.1 channels (Homo sapiens (Human), UniProt O15554)
Assay: Erythrocyte KCa3.1 assay
Type: cell-based
Conditions: human erythrocytes, A23187-activated, 37° C.; read-out: RBC K (in vitro) Human IC50
Protocol: Human blood was drawn from healthy human volunteers in a standard heparinized blood sampling vial (Vacutainer, Li/heparin, BD Bioscience, Plymouth, UK). The erythrocytes were packed by centrifugation, and the plasma and buffy coat were removed by aspiration. Erythrocytes were washed three times in the experimental salt solution and then stored at 0° C. until use. Blood samples from NMRI mice or from Wistar rats were treated similarly. The methodological principle is outlined in Macey et al. (1978) and further described in Strøbæk et al. (2013). Activation of the erythrocyte KCa3.1 channels were obtained by addition of the Ca^2+ ionophore A23187, which causes synchronized hyperpolarization, which is reported as a CCCP-mediated shift in the unbuffered extracellular pH of the erythrocyte suspension. Standard procedure: 3 mL unbuffered experimental salt solution (in mM: 2 KCl, 154 NaCl, 0.05 CaCl2) was heated to 37° C. with stirring. Packed erythrocytes were added (50 μL, final cytocrit 1.5%), and the extracellular pH (pHo) followed with a glass/calomel (pHG200-8/REF200, Radiometer, Denmark) electrode pair. CCCP (3 μL, final concentration 20 μM) was added followed by varying concentrations of test compounds (DMSO concentration constant). After pH stabilization at ˜7.2, A23187 (3 μL, final concentration 0.33 μM) was added to initiate the experiment. After the peak hyperpolarization was attained, the intracellular pH (pHi constant during the experiment) was found by haemolysing the erythrocytes via addition of 100 μL of Triton-X100.
The erythrocyte membrane potential, Vm, was calculated according to: Vm=−61.5 mV×(pHo−pHi) and the fractional remaining Ca^2+-activated K^+-conductance at the concentration C of blocker, fGK(C), was calculated from
[formula] where the K^+ equilibrium potential EK=−107 mV, the Cl^− equilibrium potential ECl=−12 mV and the Vm(0) and Vm(C) are the peak hyperpolarizations in the control and in the presence of a concentration of C of blocker respectively.
IC50 values for compounds were calculated from a plot of fGK(C) versus C by a fit to the Hill equation, using a custom program written in the IGOR-Pro software (WaveMetrics, Lake Oswego, OR, USA). All IC50-values are reported in μM.

| Structure (SMILES) | IC50 [nM] |
| --- | --- |
| COC(=O)N1CC(N(C(=O)OC)C2(c3ccc(F)c(C(F)(F)F)c3)CC2)C1 [[4], Methyl 3-((1-(4-fluoro-3-(trifluoromethyl)phenyl)cyclopropyl) (methoxycarbonyl)amino)azetidine-1-carboxylate] | 71 |
| COC(=O)N(C1CNC1)C1(c2ccc(F)c(C(F)(F)F)c2)CC1 [[5], Methyl azetidin-3-yl(1-(4-fluoro-3-(trifluoromethyl)phenyl)cyclopropyl)carbamate] | 310 |
| Fc1ccc(C2(N(CC3CC3)C3CNC3)CC2)cc1C(F)(F)F [[6], N-(cyclopropylmethyl)-N-(1-(4-fluoro-3-(trifluoromethyl)phenyl)cyclopropyl)azetidin-3-amine] | 190 |
| COC(=O)N(CCN)C1(c2ccc(F)c(C(F)(F)F)c2)CC1 [[7], Methyl (2-aminoethyl)(1-(4-fluoro-3-(trifluoromethyl)phenyl)cyclopropyl)carbamate] | 480 |
| CC(C)(N)CN(C(=O)C1CC1)C1(c2ccc(F)c(C(F)(F)F)c2)CC1 [[9], N-(2-amino-2-methylpropyl)-N-(1-(4-fluoro-3-(trifluoromethyl)phenyl)cyclopropyl)cyclopropanecarboxamide] | 350 |
| CC(C)(N)CN(C1CC1)C1(c2cccc(C(F)(F)F)c2)CC1 [[10], N1-cyclopropyl-2-methyl-N1-(1-(3-(trifluoromethyl)phenyl)cyclopropyl)propane-1,2-diamine] | 24 |
| COC(=O)N(CC(C)(C)N)C1(c2cc(Cl)cc(Cl)c2)CC1 [[11], Methyl (2-amino-2-methylpropyl)(1-(3,5-dichlorophenyl)cyclopropyl)carbamate] | 300 |
| COC(=O)N(CC(C)(C)N)C1(c2cccc(Br)c2)CC1 [[12], Methyl (2-amino-2-methylpropyl)(1-(3-bromophenyl)cyclopropyl)carbamate] | 400 |
| COC(=O)N(CC(C)(C)N)C1(c2cccc(Cl)c2)CC1 [[13], Methyl (2-amino-2-methylpropyl)(1-(3-chlorophenyl)cyclopropyl)carbamate] | 440 |
| CC(C)(O)CN(CC1CCN1)C1(c2ccc(F)c(C(F)(F)F)c2)CC1 (centres unmarked) [[14], 1-((azetidin-2-ylmethyl)(1-(4-fluoro-3-(trifluoromethyl)phenyl)cyclopropyl)amino)-2-methyl propan-2-ol] | 250 |
| COC(=O)N(CC(C)(C)N)C1(c2cccc(C(F)(F)F)c2)CC1 [[15], Methyl (2-amino-2-methylpropyl)(1-(3-(trifluoromethyl)phenyl)cyclopropyl)carbamate] | 140 |
| CC(C)(N)CN(C1CCC1)C1(c2cccc(C(F)(F)F)c2)CC1 [[18], N1-cyclobutyl-2-methyl-N1-(1-(3-(trifluoromethyl)phenyl)cyclopropyl)propane-1,2-diamine] | 18 |
| CCOC(=O)N(CC(C)(C)N)C1(c2ccc(F)c(C(F)(F)F)c2)CC1 [[19], Ethyl (2-amino-2-methylpropyl)(1-(4-fluoro-3-(trifluoromethyl)phenyl)cyclopropyl)carbamate] | 47 |
| COC(=O)N(CC(C)(C)N)C1(c2ccc(F)c(OC(F)(F)F)c2)CC1 [[20], Methyl (2-amino-2-methylpropyl)(1-(4-fluoro-3-(trifluoromethoxy)phenyl)cyclopropyl)carbamate] | 92 |
| CC(C)(N)CN(C1(c2ccc(F)c(C(F)(F)F)c2)CC1)S(C)(=O)=O [[21], N-(2-amino-2-methylpropyl)-N-(1-(4-fluoro-3-(trifluoromethyl)phenyl)cyclopropyl)methanesulfonamide] | 75 |
| COC(=O)N(C[C@H]1CCCN1)C1(c2ccc(F)c(C(F)(F)F)c2)CC1 [[22], Methyl (R)-(1-(4-fluoro-3-(trifluoromethyl)phenyl)cyclopropyl)(pyrrolidin-2-ylmethyl)carbamate] | 210 |
| COC(=O)N(C[C@@H]1CCCN1)C1(c2ccc(F)c(C(F)(F)F)c2)CC1 [[23], Methyl (S)-(1-(4-fluoro-3-(trifluoromethyl)phenyl)cyclopropyl)(pyrrolidin-2-ylmethyl)carbamate] | 120 |
| COC(=O)N(CC(C)(C)NC(C)=O)C1(c2ccc(F)c(C(F)(F)F)c2)CC1 [[24], Methyl (2-acetamido-2-methylpropyl)(1-(4-fluoro-3-(trifluoromethyl)phenyl)cyclopropyl)carbamate] | 310 |

| Structure (SMILES) | IC50 [nM] |
| --- | --- |
| CC(C)(N)CNC1(c2ccc(F)c(C(F)(F)F)c2)CC1 [[25], N1-(1-(4-fluoro-3-(trifluoromethyl)phenyl)cyclopropyl)-2-methylpropane-1,2-diamine] | 180 |
| COC(=O)N(CC1CCN1)C1(c2ccc(F)c(C(F)(F)F)c2)CC1 (centres unmarked) [[26], Methyl (azetidin-2-ylmethyl)(1-(4-fluoro-3-(trifluoromethyl)phenyl)cyclopropyl)carbamate] | 210 |
| COC(=O)N(C[C@@H]1CCCN1)C1(c2ccc(F)c(OC(F)(F)F)c2)CC1 [[28], Methyl (S)-(1-(4-fluoro-3-(trifluoromethoxy)phenyl)cyclopropyl)(pyrrolidin-2-ylmethyl)carbamate] | 87 |
| COC(=O)N(C[C@H]1CCCN1)C1(c2ccc(F)c(OC(F)(F)F)c2)CC1 [[29], Methyl (R)-(1-(4-fluoro-3-(trifluoromethoxy)phenyl)cyclopropyl)(pyrrolidin-2-ylmethyl)carbamate] | 330 |
| COC(=O)N(CC1CCN1C)C1(c2ccc(F)c(C(F)(F)F)c2)CC1 (centres unmarked) [[30], Methyl (1-(4-fluoro-3-(trifluoromethyl)phenyl)cyclopropyl)((1-methylazetidin-2-yl)methyl)carbamate] | 170 |
| COC(=O)N(CC1CCN1)C1(c2ccc(F)c(OC(F)(F)F)c2)CC1 (centres unmarked) [[32], Methyl (azetidin-2-ylmethyl)(1-(4-fluoro-3-(trifluoromethoxy)phenyl)cyclopropyl)carbamate] | 270 |
| COC(=O)N(CC(C)(C)NO)C1(c2ccc(F)c(C(F)(F)F)c2)CC1 [[33], Methyl (1-(4-fluoro-3-(trifluoromethyl)phenyl)cyclopropyl)(2-(hydroxyamino)-2-methylpropyl)carbamate] | 120 |
| CCOC(=O)N(C[C@@H]1CCCN1)C1(c2ccc(F)c(C(F)(F)F)c2)CC1 [[34], Ethyl (S)-(1-(4-fluoro-3-(trifluoromethyl)phenyl)cyclopropyl)(pyrrolidin-2-ylmethyl)carbamate] | 52 |
| CN1CCC[C@H]1CN(C1(c2ccc(F)c(C(F)(F)F)c2)CC1)S(C)(=O)=O [[37], (S)—N-(1-(4-fluoro-3-(trifluoromethyl)phenyl)cyclopropyl)-N-((1-methylpyrrolidin-2-yl)methyl)methanesulfonamide] | 140 |
| CCOC(=O)N(C[C@H]1CCCN1)C1(c2ccc(F)c(C(F)(F)F)c2)CC1 [[38], Ethyl (R)-(1-(4-fluoro-3-(trifluoromethyl)phenyl)cyclopropyl)(pyrrolidin-2-ylmethyl)carbamate] | 120 |
| COC(=O)N(C[C@@H]1COCCN1)C1(c2ccc(F)c(C(F)(F)F)c2)CC1 [[39], Methyl (R)-(1-(4-fluoro-3-(trifluoromethyl)phenyl)cyclopropyl)(morpholin-3-ylmethyl) carbamate] | 420 |
| COC(=O)N(C[C@@H]1COCCN1C)C1(c2ccc(F)c(C(F)(F)F)c2)CC1 [[40], Methyl (R)-(1-(4-fluoro-3-(trifluoromethyl)phenyl)cyclopropyl)((4-methylmorpholin-3-yl)methyl)carbamate] | 270 |
| CS(=O)(=O)N(C[C@H]1CCCN1)C1(c2ccc(F)c(C(F)(F)F)c2)CC1 [[41], (R)—N-(1-(4-fluoro-3-(trifluoromethyl)phenyl)cyclopropyl)-N-(pyrrolidin-2-ylmethyl) methane sulfonamide] | 380 |
| COC(=O)N(C[C@H]1COCCN1C)C1(c2ccc(F)c(C(F)(F)F)c2)CC1 [[43], Methyl (S)-(1-(4-fluoro-3-(trifluoromethyl)phenyl)cyclopropyl)((4-methylmorpholin-3-yl)methyl)carbamate] | 290 |
| O=C(OC1CC1)N(C[C@@H]1CCCN1)C1(c2ccc(F)c(C(F)(F)F)c2)CC1 [[45], Cyclopropyl (S)-(1-(4-fluoro-3-(trifluoromethyl)phenyl)cyclopropyl)(pyrrolidin-2-ylmethyl)carbamate] | 180 |
| COC(=O)N(C[C@@]1(C)CCCN1)C1(c2ccc(F)c(C(F)(F)F)c2)CC1 [[46], Methyl (R)-(1-(4-fluoro-3-(trifluoromethyl)phenyl)cyclopropyl)((2-methylpyrrolidin-2-yl)methyl)carbamate] | 100 |
| NC1(CNC2(c3ccc(F)c(C(F)(F)F)c3)CC2)CC1 [[47], N-((1-aminocyclopropyl)methyl)-1-(4-fluoro-3-(trifluoromethyl)phenyl)cyclopropan-1-amine] | 220 |
